In patent US8614064B2, “Methods of diagnosing atherosclerosis by measuring ApoCI” (The Johns Hopkins University, priority 2003, dated 2013):

Columns and labels:
N-SMase = assay: Neutral sphingomyelinase assay in treated ASMC ([14C]sphingomyelin substrate); type: cell-based, human
Protocol: FIGS. 3A-3C depict the effects of ApoCI, ApoCIII, TNF-α, ApoCI-enriched HDL, and ApoCI-poor HDL on the activity of N-SMase in ASMC. Confluent cultures of ASMC were preincubated for 30 minutes with serum-free (control) medium, then ApoCI (2.5 μg/mL medium), ApoCIII (2.5 μg/mL medium), TNF-α (20 ng/mL medium) (FIG. 3A, top), or ApoCI-enriched HDL (1 μg apoAI/mL medium), or ApoCI-poor HDL (5 μg apoA-I/mL medium) (FIG. 3B, middle) were added individually to cells. The cells were then incubated and harvested at the indicated time points, and the activity was of N-SMase determined using [^14C]sphingomyelin as substrate. The N-SMase activity in control cells was 22 nmol/h per milligram cell protein, and this value was considered as 100% activity. In a separate experiment (FIG. 3C bottom), cells (0.5×10^5) were seeded in P60 Petri dishes and grown in DMEM supplemented with 10% fetal bovine serum for 5 days. After preincubation of cells for 30 minutes in serum-free medium, increasing amounts of ApoCI were added. After incubation for 10 minutes, cells were harvested, and N-SMase activity was measured.
After stimulation with ApoCI ApoCI-enriched HDL and ApoCI-poor HDL, the cells were washed with 5 ml of PBS and harvested. The pellets were stored frozen at −70° C. and resuspended in 0.5 ml of buffer (100 mM Tris-HCl pH 7.4, 0.1% Triton X-100, 1 mM EDTA and protease inhibitors). The cell suspension was sonicated 3 times (3-s bursts) using a probe sonicator and centrifuged at 500×g at 4° C. for 5 min. The supernatant was used as the enzyme source. 100 μg of protein was assayed for neutral sphingomyelinase activity in a buffer consisting of 50 mM Tris-HCl, pH 7.4, 0.1% Triton X-100, 0.1 mg of bovine serum albumin, 5 mM MgCl2 and […] of [^14C]sphingomyelin (specific activity 50 mCi/mmol, from American Radiolabled Chemicals (St. Louis, Mo.). The samples were incubated at 37° C. for 2 h and terminated with the addition of 1 ml of 10% trichloroacetic acid. The precipitate was pelleted (1000×g at 4° C. for 30 min) and 1 ml of the supernatant was extracted with 1 ml of anhydrous diethyl ether. About 0.5 ml of the aqueous phase was removed for liquid scintillation counting (Ghosh, N., and Chatterjee, S. (1998) J. Biol. Chem. 264, 12554-12561).

ceramide = assay: Measurement of the ceramide level (diacylglycerol kinase assay) in ASMC; type: cell-based, human
Protocol: FIGS. 4A-4D depict the effect of ApoCI, ApoCI-enriched HDL, and ApoCI-poor HDL on the level of ceramide in ASMC. Confluent ASMC were incubated with ApoCI (2.5 μg/mL) with time (FIG. 4A, upper left) or with ApoCI-enriched HDL (1 μg apoA-I/mL medium) or ApoCI-poor HDL (5 μg apoA-I/mL medium) (FIG. 4B, upper right) for 30 minutes. FIG. 4C: The cells were incubated with ApoCI alone ([…]) for 5 minutes or preincubated with GW4869 (20 μmol/L) for 30 minutes. After addition of ApoCI (2.5 μg/mL), incubation was continued for 6 hours, 12 hours, and 24 hours. After incubation, cells were harvested and the levels of ceramide determined using the diacylglycerol kinase assay. The level of phosphate was measured and the data (mean±SD) were expressed as percentage of the total ceramide present in untreated cells (vehicle DMSO). *P<0.05. In a separate experiment (FIG. 4D, right), confluent cells were grown on cover slips and pretreated with serum-free medium for 30 minutes. The cells were then incubated with vehicle DMSO alone (control), ApoCI (2.5 μg/ML), or ApoCI (2.5 μg/mL) plus the N-SMase inhibitor GW4869 (20 μmol/L) for 24 hours. The cells were then washed, treated with a primary anticeramide antibody, washed with phosphate-buffered saline, and treated with a fluorescein isothiocyanate-conjugated anti-mouse IgG (FIG. 4C, lower panel).
Cells were pelleted and extracted with chloroform-methanol-acetic acid 100:100:2 (v/v/v). Lipids in organic phase were dried in N2 atmosphere and re-extracted, and the organic phase was dried. Detergent solution (30 μl of 7.5%/n-octyl-β-glucopyranoside with 5 mM cardiolipin in 1 mM diethylenimine-pentaacetic acid) was added, and the samples were sonicated. Total inorganic phosphate level was measured employing the method of Bartlett et al. Bartlett, G R. (1959). J. Biol. Chem. 234, 449-458). Ceramide was measured using the sn-1, 2-diacylglycerolkinase-assay reagent system and labeling for 30 min with 1 mCi of [^32P] ATP in 10 μl of 5 mM ATP (Signorelli, P., and Hannun, Y. A. (2002) Meth. Enzymol. 345, 275-294). Diacylglycerol kinase was from Streptomyces species (Calbiochem, San Diego, Calif.). [^32P] ATP (specific activity 3000 Ci/mmol) was from New England Nuclear Company (Boston, Mass.). Ceramide-1-phosphate and diacylglycerol-1-phosphate were resolved by thin-layer chromatography on silica gel plates (Whatman, Clinton, N.J.), using a solvent composed of chloroform-acetone-methanol-acetic acid-water 10:4:3:2:1(v/v) and detected by autoradiography using an Instant Imager (Packard Canberra Company). Ceramide was expressed as pmol ceramide/nmol phosphate.

“ApoCIII: purified human ApoCIII purchased from Academy Bio-Medical Company, used as negative control” was tested, and the “pattern of N-SMase stimulation with time” value (N-SMase; ApoCIII 2.5 μg/mL, ApoCI-poor HDL 5 μg apoA-I/mL, time course to 60 min) was “Such a pattern was not seen”.

For `O=C(/C=C/c1ccc(/C=C/C(=O)Nc2ccc(C3=NCCN3)cc2)cc1)Nc1ccc(C2=NCCN2)cc1` [GW4869], the “effect of GW4869 on ApoCI-induced ceramide production, 24 hours” value (ceramide; GW4869 20 μmol/L, 24 hours) was “reversed it to a high level”, the “effect of GW4869 on cellular level of ceramide induced by ApoCI, 5 minutes and 6 hours” value (ceramide; GW4869 20 μmol/L, after 5 minutes and 6 hours of incubation) was “significantly decreased” and the “effect of GW4869 on ApoCI-induced ceramide production, 12 hours” value (ceramide; GW4869 20 μmol/L, after 12 hours of incubation) was “completely inhibited”.

“Apolipoprotein C-I (TPDVSSALDKLKEFGNTLEDKARELISRIKQSELSAKMREWFSETFQKVKEKLKIDS; UniProt P02654 27-83, looked up) [ApoCI, 6.6-kDa single-chain plasma protein of 57 amino acids; purified human ApoCI purchased from Academy Bio-Medical Company]” was tested, and the “increase in the activity of N-SMase at 5 minutes” value (N-SMase; 5 min, ApoCI 2.5 μg/mL, TNF-α 20 ng/mL, ApoCI-enriched HDL 1 μg apoA-I/mL, control 22 nmol/h per mg protein = 100%) was ~2 fold, the “maximum increase in N-SMase activity, concentration dependence (FIG. 3C)” value (N-SMase; ApoCI 2.5 μg/mL medium, 10 min incubation) was 1.5 fold and the “maximum increase in ceramide level by ApoCI” value (ceramide; ApoCI 2.5 μg/mL, by 5 minutes) was 1.7 fold.
